The text below walks through data of patent US11517729B2, “Integrated fiber microneedle device for drug and vaccine delivery” (University of Washington, priority 2018, dated 2022).

This data set in a line: Release studies of integrated fiber microneedles in PBS. Format: physicochemical. The procedure: A small molecule drug, a model protein, and plasmid DNA were loaded into individual devices and the release kinetics of each were measured. These agents were loaded into an array of 420 needles, with a total device size of 4.2 cm^2. In this experiment, the needles were 350 μm in diameter and 800 μm tall. […] Each agent was successfully loaded into the fiber-microneedle system using a loading of 100 μg for the small molecule, […] for the protein, and 1.1 μg for the DNA. […] This plateau occurred at different percent release for the different agents. The small molecule plateaued at 70% release, the protein plateaued at 35% release, and the plasmid DNA plateaued around 80% release. […]
Data represent release from a single array of integrated fiber microneedles. Complete (100%) release was determined by TFV detected in release media after 84 days. […] 100% release was determined by DNA detected in release media after 25 days.
Microneedle characterization: SEM imaging of electrospun fibers on the two-layer composite microneedle molds and completed microneedles was performed on a JEOL JSM7400F cold field emission scanning electron microscope. […] TFV content was determined by HPLC (Shimadzu Prominence LC20AD UV-HPLC) with a Phenomenex Luna 153 C18 column and LCSolutions software. […] The column was heated to 30° C., and TFV was detected at 259 nm. BSA content was analyzed by the Pierce MicroBCA Assay. […]

Regarding `C[C@H](Cn1cnc2c(N)ncnc21)OCP(=O)(O)O` [TFV, tenofovir], the “plateau of percent release” value (TFV from integrated fiber microneedles into PBS, HPLC, 100% = TFV detected in release media after 84 days, single array) worked out at 70%. Further, the release profile entry (from integrated fiber microneedles (array of 420 needles) into PBS) is “sharp initial burst release followed by a plateau”.
